According to ChEMBL document CHEMBL4007488, “Amphiphilic Indole Derivatives as Antimycobacterial Agents: Structure-Activity Relationships and Membrane Targeting Properties” (J Med Chem, 2017):

Columns and labels:
Type in all cases: functional
[1] = tested on: Mycobacterium tuberculosis variant bovis BCG; assay: Ratio of WCC99.9 for Mycobacterium bovis BCG ATCC 35734 under low-oxygen tension conditions to MIC90 for Mycobacterium bovis BCG ATCC 35734
[2] = tested on: Mycobacterium tuberculosis variant bovis BCG; assay: Ratio of WCC99.9 for Mycobacterium bovis BCG ATCC 35734 under low-oxygen tension conditions to MBC99.9 for Mycobacterium bovis BCG ATCC 35734
[3] = tested on: Mycobacterium tuberculosis variant bovis BCG; assay: Ratio of MBC99.9 to MIC90 for Mycobacterium bovis BCG ATCC 35734

In the case of CCCCCCCCn1cc(CN2CCCCCC2)c2c(F)cccc21, the Ratio [1] is reported as >4, the Ratio [2] is reported as >2 and the Ratio [3] is reported as 2.
